In PubChem BioAssay (NCI) one finds TGI data, which are given here for 14 compounds.

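Results reflect a 48-hour exposure of cells in 96-well plates to compound at five concentrations. TGI denotes the concentration required for complete inhibition of growth.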

Common to all, as to assay: NCI tumour cell line growth inhibition, 48 h
Test [1] deals with ACHN renal.
Test [2] relates to HCC-2998 colon.
Test [3] deals with MDA-MB-435.
Test [4] concerns M14 melanoma.
The subject of test [5] is MCF7 breast.
Test [6] deals with SK-OV-3 ovarian.
The test system of test [7] is HS 578T breast.
The subject of test [8] is LOX IMVI melanoma.
The test system of test [9] is T-47D breast.
Test [10] has as its system SK-MEL-5 melanoma.
For test [11], the system named is SF-295 CNS.
Test [12] has as its system OVCAR-8 ovarian.
Test [13] relates to UACC-62 melanoma.
Test [14] has as its system NCI/ADR-RES ovarian.
In test [15] the test system is EKVX NSCLC.
The test system of test [16] is MDA-MB-231 breast.
Test [17] deals with K-562 leukemia.
The subject of test [18] is HL-60(TB) leukemia.
Test [19] relates to HCT-15 colon.
The test system of test [20] is HOP-62 NSCLC.

For `CNC(C#N)c1ccc(OC)cc1` (stereo not given), the TGI in test [1], in [2], in [3], in test [4], in test [5] and in [6] was greater than 100 µM in each case. For the same compound, the TGI in test [7], in test [8], in test [9], in test [10], in [11] and in test [12] was greater than 100 µM throughout. Further, the TGI in test [13], in [14], in test [15], in test [16], in test [17] and in test [18] was greater than 100 µM throughout. The compound also returned a TGI in [19] greater than 100 µM.
Take `CC(=O)O[C@H]1C[C@H]2[C@@H](OC(C)=O)/C=C3\C[C@](C)(C(=O)[C@H](O)C(=C1C)C2(C)C)[C@@H](O)C[C@@H]3OC(=O)[C@H](O)[C@H](c1ccccc1)N(C)C`: the TGI in test [1], in test [3], in test [4], in test [5], in test [6] and in [7] was greater than 100 µM each time. The TGI in test [8], in test [9], in test [10], in test [20], in test [11] and in test [12] was greater than 100 µM each time. The TGI in test [13], in test [14], in test [15], in test [16], in [17] and in test [18] was greater than 100 µM each time. In addition, the TGI in test [19] is greater than 100 µM.
`COc1ccc(N2C(=O)CC(C3CC(C(C)(C)C)CCC3=O)C2=O)cc1` (stereo not given): the TGI in test [1], in [2], in test [3], in test [4], in test [5] and in test [6] was greater than 100 µM in each case. Besides, the TGI in test [7], in test [9], in test [10], in test [20], in test [12] and in test [13] was greater than 100 µM in each case. Further, the TGI in [14], in test [15], in [16], in [17], in test [18] and in [19] was greater than 100 µM in each case.
`OC1[C@@H]2[C@@H](O)[C@H](O)[C@@H](O)N2C[C@@H]1O` (stereo not given in full): the TGI in test [1], in test [2], in test [3], in [4], in test [5] and in test [6] was greater than 100 µM throughout. The TGI in [7], in [8], in test [9], in test [10], in test [20] and in test [11] was greater than 100 µM in each case. For the same compound, the TGI in [12], in test [13], in test [14], in [15], in test [16] and in test [17] was greater than 100 µM each time. The same compound showed a TGI in test [19] greater than 100 µM.
Consider `COC(=O)c1cc2c3c(ccc2[nH]1)N(C(=O)c1cc2cc(OC)c(OC)c(OC)c2[nH]1)CC3CCl` (stereo not given), for which the TGI in test [1], in test [2], in [3], in test [4], in test [5] and in test [6] was greater than 100 µM each time. Moreover, the TGI is greater than 100 µM in [7]; greater than 100 µM in [8]; greater than 100 µM in [9]; greater than 100 µM in [10]; greater than 72 µM in [20]; greater than 100 µM in [11]. Besides, the TGI in test [12] is greater than 100 µM; in test [13], greater than 100 µM; in test [14], greater than 91.8 µM; in test [15], greater than 100 µM; in test [16] it was greater than 100 µM; in test [19], greater than 100 µM.
For `O=c1cnn(C/C=C/CBr)c(=O)[nH]1`, the TGI was 37.1 µM in test [1]; 34.7 µM in test [2]; 33.7 µM in test [3]; 35.9 µM in [4]; 36 µM in [5]; greater than 100 µM in [7]. For the same compound, the TGI was found to be 67.4 µM in test [8]; 57 µM in test [9]; 26.6 µM in test [10]; 33.2 µM in test [20]; 54 µM in [12]; 58.1 µM in test [14]. Further, the TGI in test [15] stood at 39.2 µM; in [16] it was 45.6 µM; in test [17], 70.6 µM; in test [18] it was 26.5 µM; in [19] it was 39.2 µM.
On to `CC1(C)CC(=O)c2[nH]c3ccccc3c2CC(=O)NCCc2cn1cn2`, for which the TGI in [1], in [2], in test [3], in test [4], in test [5] and in test [6] was greater than 100 µM in each case. Besides, the TGI in test [7], in test [8], in test [9], in test [10], in test [11] and in [12] was greater than 100 µM in each case. Also, the TGI in test [13], in [14], in test [15], in test [16], in test [17] and in [19] was greater than 100 µM in each case.
With `CCOC(=O)c1c(-c2ccc(OC)cc2)c(C#N)c(=S)n(C2OC(COC(C)=O)C(OC(C)=O)C(OC(C)=O)C2OC(C)=O)c1-c1ccccc1` (stereo not given), the TGI in test [1], in test [2], in test [3], in test [4], in test [5] and in test [6] was greater than 100 µM throughout. Further, the TGI in test [7], in test [8], in [9], in test [10], in test [20] and in test [11] was greater than 100 µM throughout. In addition, the TGI in test [13], in [14], in [16], in test [17], in [18] and in [19] was greater than 100 µM in each case.
Consider `NS(=O)(=O)c1ccc(N=Nc2nc3[nH]c(=O)[nH]c(=O)c3[nH]2)cc1`, for which the TGI in test [1], in [2], in test [3], in test [4], in test [5] and in [6] was greater than 100 µM throughout. For the same compound, the TGI in test [7], in [8], in test [9], in test [10], in test [20] and in test [11] was greater than 100 µM in each case. Moreover, the TGI in test [12], in test [13], in test [14], in [15], in test [16] and in test [17] was greater than 100 µM each time. In test [19], this compound registered a TGI greater than 100 µM.
On to `OCCCCCCCCCCCOc1ccc(C2OCC3(CO2)COC(c2ccc(OCCCCCCCCCCCO)cc2)OC3)cc1` (stereo not given), for which the TGI in [1], in test [2], in test [3], in test [4], in [5] and in [6] was greater than 50 µM throughout. Further, the TGI in test [7], in test [8], in test [9], in test [10], in test [20] and in test [11] was greater than 50 µM in each case. The TGI in test [12], in test [13], in test [14], in [15], in test [16] and in test [17] was greater than 50 µM each time. Also, in test [19], the TGI was greater than 50 µM.
Regarding `C[N+](CCCl)(CCCl)Cc1cccc2cccc([N+](=O)[O-])c12`, the TGI in test [1], in test [3], in test [4], in [5], in test [6] and in test [7] was greater than 100 µM in each case. Besides, the TGI in test [8], in test [9], in [10], in [20], in test [11] and in test [12] was greater than 100 µM in each case. For the same compound, the TGI in test [13], in test [14], in [15], in [16], in test [17] and in [18] was greater than 100 µM throughout. Besides, the TGI in [19] is greater than 100 µM.
On to `FC(F)(F)c1ccc(N=C/C=C(/Nc2ccc(C(F)(F)F)cc2)c2ccc(Cl)cc2)cc1`, for which the TGI in test [1] was determined as 26.2 µM; in test [3] it was 23 µM; in [4], 30.5 µM; in test [5], 48 µM; in [6], 39.1 µM; in test [7], 38.2 µM. The TGI in test [8] was found to be 19.3 µM; in test [9], 39.9 µM; in test [10], 22.2 µM; in test [20], 40.1 µM; in test [11], 36.1 µM; in test [12], 39 µM. Moreover, the TGI in [13] was 15.6 µM; in [14] it was 32.3 µM; in [15], 44.4 µM; in test [16], 37.7 µM; in test [17], greater than 100 µM; in test [18], 65.5 µM. In test [19], this compound showed a TGI of 25 µM.
For `CCOC(=O)C1=C(C)N(Cc2ccc(Cl)cc2Cl)C2(O)C=CC(=O)C3C(=O)N(c4ccccc4)C(=O)C132` (stereo not given), the TGI in test [1] amounted to 3.08 µM; in test [2], 3.54 µM; in test [3] it was 7.24 µM; in [4], 16 µM; in test [5], 5.11 µM; in test [7], 36.3 µM. Also, the TGI in test [8] stood at 2.38 µM; in test [9], 3.12 µM; in test [10], 8.57 µM; in test [20] it was 29.5 µM; in test [11] it was 11.2 µM; in test [12] it was 7.89 µM. In addition, the TGI in test [13] was 3.74 µM; in test [14], 11.1 µM; in [15] it was 4.35 µM; in test [16], 6.44 µM; in test [17], 4.04 µM; in test [18], 6.67 µM. In test [19], this compound displayed a TGI of 3.88 µM.
In the case of `CC(C)(Cl)C(Br)CCC(C)(Cl)C(Br)CBr` (stereo not given), the TGI in [1] is 52.6 µM; in test [2], greater than 100 µM; in test [3] it was 73.6 µM; in test [4], greater than 100 µM; in [5] it was 41.7 µM; in test [6] it was greater than 100 µM. Further, the TGI is 82.9 µM in [7]; 81.3 µM in [9]; 34.5 µM in [10]; 57.3 µM in test [20]; 46 µM in test [11]; greater than 100 µM in [12]. For the same compound, the TGI was greater than 100 µM in test [13]; 68 µM in test [14]; 84.2 µM in test [15]; 47.2 µM in [16]; greater than 100 µM in [17]; 35.4 µM in test [18]. In test [19], this compound yielded a TGI of 61.9 µM.
